Tests used:
bedstraw = assay: Test B pre/postemergence bedstraw; format: in vivo, Galium aparine
Summary of the method: (§1)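 Test chemicals in a non-phytotoxic solvent mixture with surfactant were sprayed preemergence onto planted seeds and postemergence onto plants 2 to 18 cm tall (1- to 4-leaf stage). After twelve to sixteen days in a greenhouse, injury was visually rated against untreated controls from 0 (no effect) to 10 (complete control).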

blackgrass = assay: Test B pre/postemergence blackgrass; format: in vivo, Alopecurus myosuroides
Summary of the method: as §1

surinam grass = assay: Test B pre/postemergence surinam grass; format: in vivo, Brachiaria decumbens
Summary of the method: as §1

corn = assay: Test B pre/postemergence corn; format: in vivo, Zea mays
Summary of the method: as §1

giant foxtail = assay: Test B pre/postemergence giant foxtail; format: in vivo, Setaria faberii
Summary of the method: as §1

morningglory = assay: Test B pre/postemergence morningglory; format: in vivo, Ipomoea hederacea
Summary of the method: as §1

pigweed = assay: Test B pre/postemergence pigweed; format: in vivo, Amaranthus retroflexus
Summary of the method: as §1

rape = assay: Test B pre/postemergence rape; format: in vivo, Brassica napus
Summary of the method: as §1

soybean = assay: Test B pre/postemergence soybean; format: in vivo, Glycine max
Summary of the method: as §1

sugar beet = assay: Test B pre/postemergence sugar beet; format: in vivo, Beta vulgaris
Summary of the method: as §1

velvetleaf = assay: Test B pre/postemergence velvetleaf; format: in vivo, Abutilon theophrasti
Summary of the method: as §1

purple nutsedge = assay: Test B pre/postemergence purple nutsedge; format: in vivo, Cyperus rotundus
Summary of the method: as §1

rice = assay: Test B flood test rice; format: in vivo, Oryza sativa
Summary of the method: (§2)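 Flood test on plants grown to the 2-leaf stage; treated plants kept in greenhouse twelve to sixteen days, then visually rated against controls on a 0 (no effect) to 10 (complete control) scale.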

smallflower flatsedge = assay: Test B flood test smallflower flatsedge; format: in vivo, Cyperus difformis
Summary of the method: as §2

duck salad = assay: Test B flood test duck salad; format: in vivo, Heteranthera limosa
Summary of the method: as §2

bamyardgrass = assay: Test B flood test barnyardgrass; format: in vivo, Echinochloa crus-galli
Summary of the method: as §2

[1] = Postemergence, Rate 62 g/ha, scale 0 to 10, 0 is no effect, 10 is complete control
[2] = Postemergence, Rate 250 g/ha, scale 0 to 10, 0 no effect, 10 complete control
[3] = Preemergence, Rate 62 g/ha, scale 0 to 10 (0 no effect, 10 complete control)
[4] = Preemergence, Rate 125 g/ha, scale 0 to 10 (0 no effect, 10 complete control)
[5] = Preemergence, Rate 250 g/ha, scale of 0 to 10 where 0 is no effect and 10 is complete control
[6] = Preemergence, Rate 500 g/ha, scale 0 (no effect) to 10 (complete control)
[7] = Rate 125 g/ha, Postemergence, scale 0 to 10, 0 no effect, 10 complete control
[8] = Rate 500 g/ha, Postemergence, scale 0 to 10, 0 no effect, 10 complete control
[9] = Rate 125 g/ha, Postemergence section (flood test species), scale 0 to 10, 0 no effect, 10 complete control
[10] = Rate 500 g/ha, listed under Postemergence (flood test species), scale 0 to 10, 0 no effect, 10 complete control
[11] = flood test, listed under Postemergence, Rate 250 g/ha, scale 0 to 10, 0 no effect, 10 complete control

CCN(C(=O)n1oc(=O)n(-c2c(C)cc(C)cc2C)c1=O)C1CCCCC1 [Compound 63]
5: Velvetleaf plant response rating (velvetleaf; [2]) | Velvetleaf plant response rating (velvetleaf; [8])
0: Bedstraw plant response rating (bedstraw; [1]) | Bedstraw plant response rating (bedstraw; [3]) | Plant response rating, Bedstraw (bedstraw; [4]) | Plant response rating, Bedstraw (bedstraw; [5]) | Bedstraw plant response rating (bedstraw; [7]) | Blackgrass plant response rating (blackgrass; [1]) | Blackgrass plant response rating (blackgrass; [2]) | Blackgrass plant response rating (blackgrass; [3]) | Plant response rating, Blackgrass (blackgrass; [4]) | Plant response rating, Blackgrass (blackgrass; [5]) | Blackgrass plant response rating (blackgrass; [6]) | Blackgrass plant response rating (blackgrass; [7]) | Blackgrass plant response rating (blackgrass; [8]) | B. signalgrass plant response rating (surinam grass; [1]) | B. signalgrass plant response rating (surinam grass; [2]) | B. signalgrass plant response rating (surinam grass; [3]) | Plant response rating, B. signalgrass (surinam grass; [4]) | Plant response rating, B. signalgrass (surinam grass; [5]) | B. signalgrass plant response rating (surinam grass; [6]) | B. signalgrass plant response rating (surinam grass; [7]) | B. signalgrass plant response rating (surinam grass; Rate 500 g/ha, Postemergence, scale of 0 to 10 where 0 is no effect and 10 is complete control) | Corn plant response rating (corn; [1]) | Corn plant response rating (corn; [3]) | Plant response rating, Corn (corn; [4]) | Plant response rating, Corn (corn; [5]) | Corn plant response rating (corn; [6]) | Corn plant response rating (corn; [7]) | Giant foxtail plant response rating (giant foxtail; [1]) | Giant foxtail plant response rating (giant foxtail; [2]) | Giant foxtail plant response rating (giant foxtail; [3]) | Plant response rating, Giant foxtail (giant foxtail; [4]) | Giant foxtail plant response rating (giant foxtail; [7]) | Morningglory plant response rating (morningglory; [1]) | Morningglory plant response rating (morningglory; [3]) | Plant response rating, Morningglory (morningglory; [4]) | Plant response rating, Morningglory (morningglory; [5]) | Morningglory plant response rating (morningglory; [6]) | Redroot pigweed plant response rating (pigweed; [1]) | Redroot pigweed plant response rating (pigweed; [2]) | Redroot pigweed plant response rating (pigweed; [3]) | Plant response rating, Redroot pigweed (pigweed; [4]) | Plant response rating, Redroot pigweed (pigweed; [5]) | Redroot pigweed plant response rating (pigweed; [6]) | Redroot pigweed plant response rating (pigweed; [7]) | Rape plant response rating (rape; [1]) | Rape plant response rating (rape; [2]) | Rape plant response rating (rape; [3]) | Plant response rating, Rape (rape; [4]) | Plant response rating, Rape (rape; [5]) | Rape plant response rating (rape; [7]) | Rape plant response rating (rape; [8]) | Soybean plant response rating (soybean; [3]) | Plant response rating, Soybean (soybean; [4]) | Plant response rating, Soybean (soybean; [5]) | Soybean plant response rating (soybean; [6]) | Sugarbeets plant response rating (sugar beet; [1]) | Sugarbeets plant response rating (sugar beet; [3]) | Plant response rating, Sugarbeets (sugar beet; [4]) | Plant response rating, Sugarbeets (sugar beet; [5]) | Sugarbeets plant response rating (sugar beet; [6]) | Sugarbeets plant response rating (sugar beet; [7]) | Velvetleaf plant response rating (velvetleaf; [3]) | Plant response rating, Velvetleaf (velvetleaf; [4]) | Nutsedge plant response rating (purple nutsedge; [1]) | Nutsedge plant response rating (purple nutsedge; [3]) | Plant response rating, Nutsedge (purple nutsedge; [4]) | Plant response rating, Nutsedge (purple nutsedge; [5]) | Nutsedge plant response rating (purple nutsedge; [7]) | Rice plant response rating (rice; [1]) | Rice plant response rating (rice; [9]) | Rice plant response rating (rice; [10]) | Rice plant response rating (rice; [11]) | S. Flatsedge plant response rating (smallflower flatsedge; [1]) | S. Flatsedge plant response rating (smallflower flatsedge; [9]) | S. Flatsedge plant response rating (smallflower flatsedge; [10]) | S. Flatsedge plant response rating (smallflower flatsedge; [11]) | Ducksalad plant response rating (duck salad; [1]) | Ducksalad plant response rating (duck salad; [9]) | Ducksalad plant response rating (duck salad; [10]) | Ducksalad plant response rating (duck salad; [11]) | Barnyardgrass plant response rating (bamyardgrass; [1]) | Barnyardgrass plant response rating (bamyardgrass; [9]) | Barnyardgrass plant response rating (bamyardgrass; [10]) | Barnyardgrass plant response rating (bamyardgrass; [11])
4: Morningglory plant response rating (morningglory; [2]) | Morningglory plant response rating (morningglory; [8])
6: Nutsedge plant response rating (purple nutsedge; [6])
3: Bedstraw plant response rating (bedstraw; [2]) | Bedstraw plant response rating (bedstraw; [6]) | Giant foxtail plant response rating (giant foxtail; [6]) | Soybean plant response rating (soybean; [8]) | Sugarbeets plant response rating (sugar beet; [8]) | Velvetleaf plant response rating (velvetleaf; [1]) | Velvetleaf plant response rating (velvetleaf; [6]) | Velvetleaf plant response rating (velvetleaf; [7])
2: Corn plant response rating (corn; [2]) | Corn plant response rating (corn; [8]) | Plant response rating, Giant foxtail (giant foxtail; [5]) | Giant foxtail plant response rating (giant foxtail; [8]) | Morningglory plant response rating (morningglory; [7]) | Redroot pigweed plant response rating (pigweed; [8]) | Soybean plant response rating (soybean; [1]) | Soybean plant response rating (soybean; [2]) | Soybean plant response rating (soybean; [7]) | Sugarbeets plant response rating (sugar beet; [2]) | Plant response rating, Velvetleaf (velvetleaf; [5]) | Nutsedge plant response rating (purple nutsedge; [2]) | Nutsedge plant response rating (purple nutsedge; [8])

Reference: patent publication US6737383B1, “Herbicidal oxadiazolidines” (priority 1999, dated 2004)
